Measured values published in the NIST ThermoML archive (doi:10.1016/j.jct.2018.01.024).

Experiment: mn = molality of the nth substance listed, in mol/kg
Conditions: Liquid

NC(N)=O [urea] + O
Conditions | mass density [kg/m3]
279.15 K, 101 kPa, Vibrating tube method, m1 = 0.1063 | 1001.79
279.15 K, 101 kPa, Vibrating tube method, m1 = 0.141 | 1002.39
279.15 K, 101 kPa, Vibrating tube method, m1 = 0.152 | 1002.57
279.15 K, 101 kPa, Vibrating tube method, m1 = 0.1809 | 1003.07
279.15 K, 101 kPa, Vibrating tube method, m1 = 0.2423 | 1004.12
279.15 K, 101 kPa, Vibrating tube method, m1 = 0.4362 | 1007.39
279.15 K, 101 kPa, Vibrating tube method, m1 = 0.5644 | 1009.51
279.15 K, 101 kPa, Vibrating tube method, m1 = 1.008 | 1016.61
279.15 K, 101 kPa, Vibrating tube method, m1 = 1.609 | 1025.68
279.15 K, 101 kPa, Vibrating tube method, m1 = 2.505 | 1038.19
280.15 K, 101 kPa, Vibrating tube method, m1 = 0.093 | 1001.51
280.15 K, 101 kPa, Vibrating tube method, m1 = 0.1063 | 1001.74
280.15 K, 101 kPa, Vibrating tube method, m1 = 0.141 | 1002.33
280.15 K, 101 kPa, Vibrating tube method, m1 = 0.152 | 1002.52
280.15 K, 101 kPa, Vibrating tube method, m1 = 0.1809 | 1003.02
280.15 K, 101 kPa, Vibrating tube method, m1 = 0.2423 | 1004.06
280.15 K, 101 kPa, Vibrating tube method, m1 = 0.4362 | 1007.31
280.15 K, 101 kPa, Vibrating tube method, m1 = 0.5644 | 1009.42
280.15 K, 101 kPa, Vibrating tube method, m1 = 1.008 | 1016.48
280.15 K, 101 kPa, Vibrating tube method, m1 = 1.609 | 1025.5
280.15 K, 101 kPa, Vibrating tube method, m1 = 2.505 | 1037.95
281.15 K, 101 kPa, Vibrating tube method, m1 = 0.093 | 1001.45
281.15 K, 101 kPa, Vibrating tube method, m1 = 0.1063 | 1001.67
281.15 K, 101 kPa, Vibrating tube method, m1 = 0.141 | 1002.26
281.15 K, 101 kPa, Vibrating tube method, m1 = 0.152 | 1002.46
281.15 K, 101 kPa, Vibrating tube method, m1 = 0.1809 | 1002.95
281.15 K, 101 kPa, Vibrating tube method, m1 = 0.2423 | 1003.99
281.15 K, 101 kPa, Vibrating tube method, m1 = 0.4362 | 1007.21
281.15 K, 101 kPa, Vibrating tube method, m1 = 0.5644 | 1009.31
281.15 K, 101 kPa, Vibrating tube method, m1 = 1.008 | 1016.33
281.15 K, 101 kPa, Vibrating tube method, m1 = 1.609 | 1025.3
281.15 K, 101 kPa, Vibrating tube method, m1 = 2.505 | 1037.71
282.15 K, 101 kPa, Vibrating tube method, m1 = 0.093 | 1001.37
282.15 K, 101 kPa, Vibrating tube method, m1 = 0.1063 | 1001.6
282.15 K, 101 kPa, Vibrating tube method, m1 = 0.141 | 1002.18
282.15 K, 101 kPa, Vibrating tube method, m1 = 0.152 | 1002.37
282.15 K, 101 kPa, Vibrating tube method, m1 = 0.1809 | 1002.86
282.15 K, 101 kPa, Vibrating tube method, m1 = 0.2423 | 1003.89
282.15 K, 101 kPa, Vibrating tube method, m1 = 0.4362 | 1007.1
282.15 K, 101 kPa, Vibrating tube method, m1 = 0.5644 | 1009.18
282.15 K, 101 kPa, Vibrating tube method, m1 = 1.008 | 1016.17
282.15 K, 101 kPa, Vibrating tube method, m1 = 1.609 | 1025.12
282.15 K, 101 kPa, Vibrating tube method, m1 = 2.505 | 1037.45
283.15 K, 101 kPa, Vibrating tube method, m1 = 0.093 | 1001.28
283.15 K, 101 kPa, Vibrating tube method, m1 = 0.1063 | 1001.51
283.15 K, 101 kPa, Vibrating tube method, m1 = 0.141 | 1002.09
283.15 K, 101 kPa, Vibrating tube method, m1 = 0.152 | 1002.27
283.15 K, 101 kPa, Vibrating tube method, m1 = 0.1809 | 1002.76
283.15 K, 101 kPa, Vibrating tube method, m1 = 0.2423 | 1003.78
283.15 K, 101 kPa, Vibrating tube method, m1 = 0.4362 | 1006.97
283.15 K, 101 kPa, Vibrating tube method, m1 = 0.5644 | 1009.04
283.15 K, 101 kPa, Vibrating tube method, m1 = 1.008 | 1016
283.15 K, 101 kPa, Vibrating tube method, m1 = 1.609 | 1024.89
283.15 K, 101 kPa, Vibrating tube method, m1 = 2.505 | 1037.2
288.15 K, 101 kPa, Vibrating tube method, m1 = 0.093 | 1000.63
288.15 K, 101 kPa, Vibrating tube method, m1 = 0.1063 | 1000.85
288.15 K, 101 kPa, Vibrating tube method, m1 = 0.141 | 1001.42
288.15 K, 101 kPa, Vibrating tube method, m1 = 0.152 | 1001.6
288.15 K, 101 kPa, Vibrating tube method, m1 = 0.1809 | 1002.08
288.15 K, 101 kPa, Vibrating tube method, m1 = 0.2423 | 1003.08
288.15 K, 101 kPa, Vibrating tube method, m1 = 0.4362 | 1006.2
288.15 K, 101 kPa, Vibrating tube method, m1 = 0.5644 | 1008.22
288.15 K, 101 kPa, Vibrating tube method, m1 = 1.008 | 1015
288.15 K, 101 kPa, Vibrating tube method, m1 = 1.609 | 1023.7
288.15 K, 101 kPa, Vibrating tube method, m1 = 2.505 | 1035.73
288.15 K, 101 kPa, Vibrating tube method, m1 = 3.376 | 1046.46
288.15 K, 101 kPa, Vibrating tube method, m1 = 4.33 | 1057.3
288.15 K, 101 kPa, Vibrating tube method, m1 = 5.39 | 1068.26
288.15 K, 101 kPa, Vibrating tube method, m1 = 8 | 1091.62
288.15 K, 101 kPa, Vibrating tube method, m1 = 9.9 | 1105.86
288.15 K, 101 kPa, Vibrating tube method, m1 = 12.8 | 1124.47
288.15 K, 10000 kPa, Constant-volume piezometry, m1 = 0.1809 | 1006.62
288.15 K, 10000 kPa, Constant-volume piezometry, m1 = 0.4362 | 1010.71
288.15 K, 10000 kPa, Constant-volume piezometry, m1 = 0.5644 | 1012.73
288.15 K, 10000 kPa, Constant-volume piezometry, m1 = 1.609 | 1028.1
288.15 K, 10000 kPa, Constant-volume piezometry, m1 = 2.505 | 1040.04
288.15 K, 10000 kPa, Constant-volume piezometry, m1 = 3.376 | 1050.69
288.15 K, 10000 kPa, Constant-volume piezometry, m1 = 5.39 | 1072.37
288.15 K, 10000 kPa, Constant-volume piezometry, m1 = 8 | 1095.6
288.15 K, 10000 kPa, Constant-volume piezometry, m1 = 10.99 | 1117.15
288.15 K, 10000 kPa, Constant-volume piezometry, m1 = 12.8 | 1128.28
288.15 K, 25000 kPa, Constant-volume piezometry, m1 = 0.1809 | 1013.33
288.15 K, 25000 kPa, Constant-volume piezometry, m1 = 0.4362 | 1017.37
288.15 K, 25000 kPa, Constant-volume piezometry, m1 = 0.5644 | 1019.38
288.15 K, 25000 kPa, Constant-volume piezometry, m1 = 1.609 | 1034.57
288.15 K, 25000 kPa, Constant-volume piezometry, m1 = 2.505 | 1046.37
288.15 K, 25000 kPa, Constant-volume piezometry, m1 = 3.376 | 1056.91
288.15 K, 25000 kPa, Constant-volume piezometry, m1 = 5.39 | 1078.39
288.15 K, 25000 kPa, Constant-volume piezometry, m1 = 8 | 1101.46
288.15 K, 25000 kPa, Constant-volume piezometry, m1 = 10.99 | 1122.84
288.15 K, 25000 kPa, Constant-volume piezometry, m1 = 12.8 | 1133.9
288.15 K, 50000 kPa, Constant-volume piezometry, m1 = 0.1809 | 1024.08
288.15 K, 50000 kPa, Constant-volume piezometry, m1 = 0.4362 | 1028.05
288.15 K, 50000 kPa, Constant-volume piezometry, m1 = 0.5644 | 1029.99
288.15 K, 50000 kPa, Constant-volume piezometry, m1 = 1.609 | 1044.87
288.15 K, 50000 kPa, Constant-volume piezometry, m1 = 2.505 | 1056.4
288.15 K, 50000 kPa, Constant-volume piezometry, m1 = 3.376 | 1066.74
288.15 K, 50000 kPa, Constant-volume piezometry, m1 = 5.39 | 1087.86
288.15 K, 50000 kPa, Constant-volume piezometry, m1 = 8 | 1110.67
288.15 K, 50000 kPa, Constant-volume piezometry, m1 = 10.99 | 1131.87
288.15 K, 50000 kPa, Constant-volume piezometry, m1 = 12.8 | 1142.81
288.15 K, 75000 kPa, Constant-volume piezometry, m1 = 0.1809 | 1034.29
288.15 K, 75000 kPa, Constant-volume piezometry, m1 = 0.4362 | 1038.17
288.15 K, 75000 kPa, Constant-volume piezometry, m1 = 0.5644 | 1040.07
288.15 K, 75000 kPa, Constant-volume piezometry, m1 = 1.609 | 1054.62
288.15 K, 75000 kPa, Constant-volume piezometry, m1 = 2.505 | 1065.93
288.15 K, 75000 kPa, Constant-volume piezometry, m1 = 3.376 | 1076.06
288.15 K, 75000 kPa, Constant-volume piezometry, m1 = 5.39 | 1096.81
288.15 K, 75000 kPa, Constant-volume piezometry, m1 = 8 | 1119.36
288.15 K, 75000 kPa, Constant-volume piezometry, m1 = 10.99 | 1140.4
288.15 K, 75000 kPa, Constant-volume piezometry, m1 = 12.8 | 1151.22
288.15 K, 100000 kPa, Constant-volume piezometry, m1 = 0.1809 | 1043.99
288.15 K, 100000 kPa, Constant-volume piezometry, m1 = 0.4362 | 1047.8
